Data from patent US8916567B2, “Certain crystalline hydrates, pharmaceutical compositions thereof and methods for preparation and use thereof” (Universal Technology Alliance, Inc., priority 2009, dated 2014).

Key:
Assay type in all cases: cell-based
E. feacium = test: Minimum inhibitory concentration (MIC) in vitro, agar dilution method
Excerpt: (§1) Hydrates Samples: • The 1/2 hydrates prepared according to Example 2; • Content (purity % wt): 99.0%; • The 1/12 hydrates prepared according to Example 253; • Content (purity % wt): 98.9%; • The 2/7 hydrates prepared according to Example 106; • Content (purity % wt): 98.8%; • The 2/5 hydrates prepared according to Example 162; • Content (purity % wt): 99.0%; • The 3/4 hydrates prepared according to Example 337; • Content (purity % wt): 98.8%; • Preparation: dissolved in DMSO, and further diluted with sterile distilled water to desired concentration. • The hydrates samples were supplied by Sichuan Beilike Biotechnology LTD.
(§2) Anhydrous Sample: • The anhydrous compounds prepared according to Example 1. • Content (purity % wt): 98.6%; • Preparation: dissolved in DMSO, and further diluted with sterile distilled water to desired concentration; • The anhydrous sample was supplied by Sichuan Beilike Biotechnology LTD.
(§3) Control Samples • Vancomycin: provided by Sichuan Beilike Biotechnology LTD, purchased from Eli Lilly Japan K.K. • Lot No.: WM16151 (production date: Apr. 10, 2007, expiration date: Apr. 9, 2009). • Specification: 500 mg/bottle; solubility (physicochemical properties): soluble in water. • Linezolid (LZ): provided by Sichuan Beilike Biotechnology LTD.
(§4) Bacteria Strains • Clinically isolated strains: clinically isolated bacterial pathogens collected in Sichuan and Beijing areas from March 2007 to May 2008. • Species include: Staphylococcus aureus MRSA, Staphylococcus aureus MSSA, S. epidermidis MRSE, S. epidermidis MSSE, E. feacalis, and E. feacium, a total of 51 strains. • Quality control strains: Staphylococcus aureus […] strain kept in Sichuan Industrial Institute of Antibiotics, purchased from the medical testing center of the Ministry of Health, China.
(§5) Experimental Method: • Measurement of the minimum inhibitory concentration (MIC) in vitro: • The minimum inhibitory concentration (MIC) of each test sample against test strains was measured by using the agar dilution method recommended by the U.S. National Committee for Clinical Laboratory Standards (CLSI/NCCIs).
(§6) Based on the CLSI/NCCL's testing standard with respect to vancomycin and linezolid (see Table 6), the minimum inhibitory concentration (MIC) values of every strain were reported, and the MIC50 (the concentration that inhibits 50% of the different strains of bacteria), MIC90 (the concentration that inhibits 90% of the different strains of bacteria), and MICrange (the range of the MIC value of the tested strains) were observed.

S. epidermidis MRSE = test: as above
Excerpt: as §1, §2, §3, §4, §5, §6

E. feacalis = test: as above
Excerpt: as §1, §2, §3, §4, §5, §6

[1] = test system: Staphylococcus aureus MRSA; test: as above
Excerpt: as §1, §2, §3, §4, §5, §6

S. epidermidis MSSE = test: as above
Excerpt: as §1, §2, §3, §4, §5, §6

[2] = test system: Staphylococcus aureus MSSA; test: as above
Excerpt: as §1, §2, §3, §4, §5, §6

Staphylococcus aureus = test: Minimum inhibitory concentration (MIC) in vitro, agar dilution method, quality control strain; conditions: Staphylococcus aureus, ATCC27853
Excerpt: as §1, §2, §3, §4, §5, §6

[3] = Staphylococcus epidermidis, MRSE

CN[C@H](CC(C)C)C(=O)N[C@H]1C(=O)N[C@@H](CC(N)=O)C(=O)N[C@H]2C(=O)N[C@H]3C(=O)N[C@H](C(=O)N[C@H](C(=O)O)c4cc(O)cc(O)c4-c4cc3ccc4O)[C@H](O)c3ccc(c(Cl)c3)Oc3cc2cc(c3O[C@@H]2O[C@H](CO)[C@@H](O)[C@H](O)[C@H]2O[C@H]2C[C@](C)(N)[C@H](O)[C@H](C)O2)Oc2ccc(cc2Cl)[C@H]1O [Vancomycin, reference compound]
1 mg/L: MIC50 (S. epidermidis MRSE; [3]) | MIC90 (S. epidermidis MRSE; [3]) | MIC (S. epidermidis MRSE; Staphylococcus epidermidis, MRSE, strain S. ep MRSE4 (Table 8 No. 9)) | MIC (S. epidermidis MRSE; Staphylococcus epidermidis, MRSE, strain S. ep MRSE20 (Table 8 No. 6)) | MIC (S. epidermidis MRSE; Staphylococcus epidermidis, MRSE, strain S. ep MRSE90 (Table 8 No. 10)) | MIC (S. epidermidis MRSE; Staphylococcus epidermidis, MRSE, strain S. ep MRSE101 (Table 8 No. 7)) | MIC (S. epidermidis MRSE; Staphylococcus epidermidis, MRSE, strain S. ep MRSE140 (Table 8 No. 14)) | MIC (S. epidermidis MRSE; Staphylococcus epidermidis, MRSE, strain S. ep MRSE210 (Table 8 No. 15)) | MIC50 (E. feacalis) | MIC (E. feacalis; strain Efa 54 (Table 8 No. 20)) | MIC (E. feacalis; strain Efa 907 (Table 8 No. 19)) | MIC50 ([1]; Staphylococcus aureus, MRSA) | MIC90 ([1]; Staphylococcus aureus, MRSA) | MIC ([1]; Staphylococcus aureus, MRSA, strain S. MRSA 201 (Table 7 No. 13)) | MIC ([1]; Staphylococcus aureus, MRSA, strain S. MRSA B27 (Table 7 No. 21)) | MIC ([1]; Staphylococcus aureus, MRSA, strain S. MRSA B105 (Table 7 No. 17)) | MIC ([1]; Staphylococcus aureus, MRSA, strain S. MRSA B151 (Table 7 No. 20)) | MIC ([1]; Staphylococcus aureus, MRSA, strain S. MRSA B164 (Table 7 No. 16)) | MIC ([1]; Staphylococcus aureus, MRSA, strain S. MRSA B199 (Table 7 No. 22)) | MIC90 (S. epidermidis MSSE; Staphylococcus epidermidis) | MIC (S. epidermidis MSSE; Staphylococcus epidermidis, strain S. ep MSSE88 (Table 8 No. 5)) | MIC (S. epidermidis MSSE; Staphylococcus epidermidis, strain S. ep MSSE118 (Table 8 No. 2)) | MIC (S. epidermidis MSSE; Staphylococcus epidermidis, strain S. ep MSSE137 (Table 8 No. 4)) | MIC50 ([2]; Staphylococcus aureus, MSSA) | MIC90 ([2]; Staphylococcus aureus, MSSA) | MIC ([2]; Staphylococcus aureus, MSSA, strain S. MSSA 195 (Table 7 No. 6)) | MIC ([2]; Staphylococcus aureus, MSSA, strain S. MSSA 195 (Table 7 No. 12)) | MIC ([2]; Staphylococcus aureus, MSSA, strain S. MSSA 201 (Table 7 No. 11)) | MIC ([2]; Staphylococcus aureus, MSSA, strain S. MSSA 275 (Table 7 No. 10)) | MIC ([2]; Staphylococcus aureus, MSSA, strain S. MSSA 519 (Table 7 No. 9)) | MIC ([2]; Staphylococcus aureus, MSSA, strain S. MSSA 580 (Table 7 No. 5)) | MIC (Staphylococcus aureus)
2 mg/L: MIC (E. feacium; strain Efm N3 (Table 8 No. 23)) | MIC90 (E. feacalis) | MIC (E. feacalis; strain Efa 3006 (Table 8 No. 18))
0.06 to 1 µg/mL: MICrange (S. epidermidis MSSE; S. ep MSSE (10 strains), clinically isolated)
0.125 mg/L: MIC (S. epidermidis MSSE; Staphylococcus epidermidis, strain S. ep MSSE87 (Table 7 No. 23)) | MIC (S. epidermidis MSSE; Staphylococcus epidermidis, strain S. ep MSSE116 (Table 7 No. 25)) | MIC (S. epidermidis MSSE; Staphylococcus epidermidis, strain S. ep MSSE119 (Table 7 No. 27))
8 mg/L: MIC90 (E. feacium) | MIC (E. feacium; strain Efm 171 (Table 8 No. 25)) | MIC (E. feacium; strain Efm N4 (Table 8 No. 24))
5 mg/L: MIC ([1]; Staphylococcus aureus, MRSA, strain S. MRSA B617 (Table 7 No. 18))
0.25 to 2 µg/mL: MICrange (E. feacalis; E. feacalis (5 strains), clinically isolated)
0.25 to 1 µg/mL: MICrange (S. epidermidis MRSE; S. ep MRSE (10 strains), clinically isolated)
4 mg/L: MIC50 (E. feacium) | MIC (E. feacium; strain Efm 98 (Table 8 No. 21)) | MIC (E. feacium; strain Efm 197 (Table 8 No. 22))
0.5 mg/L: MIC (S. epidermidis MRSE; Staphylococcus epidermidis, MRSE, strain S. ep MRSE105 (Table 8 No. 11)) | MIC (S. epidermidis MRSE; Staphylococcus epidermidis, MRSE, strain S. ep MRSE142 (Table 8 No. 12)) | MIC (S. epidermidis MRSE; Staphylococcus epidermidis, MRSE, strain S. ep MRSE211 (Table 8 No. 8)) | MIC (E. feacalis; strain Efa 116 (Table 8 No. 16)) | MIC ([1]; Staphylococcus aureus, MRSA, strain S. MRSA 29 (Table 7 No. 15)) | MIC ([1]; Staphylococcus aureus, MRSA, strain S. MRSA 101 (Table 7 No. 14)) | MIC ([1]; Staphylococcus aureus, MRSA, strain S. MRSA B143 (Table 7 No. 19)) | MIC50 (S. epidermidis MSSE; Staphylococcus epidermidis) | MIC (S. epidermidis MSSE; Staphylococcus epidermidis, strain S. ep MSSE113 (Table 7 No. 24)) | MIC (S. epidermidis MSSE; Staphylococcus epidermidis, strain S. ep MSSE140 (Table 8 No. 3)) | MIC (S. epidermidis MSSE; Staphylococcus epidermidis, strain S. ep MSSE153 (Table 8 No. 1)) | MIC ([2]; Staphylococcus aureus, MSSA, strain S. MSSA 123 (Table 7 No. 3)) | MIC ([2]; Staphylococcus aureus, MSSA, strain S. MSSA 187 (Table 7 No. 7)) | MIC ([2]; Staphylococcus aureus, MSSA, strain S. MSSA 232 (Table 7 No. 2)) | MIC ([2]; Staphylococcus aureus, MSSA, strain S. MSSA 466 (Table 7 No. 8)) | MIC ([2]; Staphylococcus aureus, MSSA, strain S. MSSA 520 (Table 7 No. 4))
0.5 to 1 µg/mL: MICrange ([1]; S. MRSA (10 strains), clinically isolated) | MICrange ([2]; S. MSSA (11 strains), clinically isolated)
2 to 8 µg/mL: MICrange (E. feacium; E. feacium (5 strains), clinically isolated)
0.25 mg/L: MIC (S. epidermidis MRSE; Staphylococcus epidermidis, MRSE, strain S. ep MRSE87 (Table 8 No. 13)) | MIC (E. feacalis; strain Efa 33748 (Table 8 No. 17))
0.06 mg/L: MIC (S. epidermidis MSSE; Staphylococcus epidermidis, strain S. ep MSSE142 (Table 7 No. 26))
